As usually defined, the melting point is the temperature of the solid-liquid transition.

The molecule `COc1ccc(C(=O)c2cccc(OCc3nc(-c4ccccc4)oc3C)c2)c(OCCOC(C)=O)c1` [Example 2, (5-methoxy-2-{3-[(5-methyl-2-phenyl-1,3-oxazol-4-yl)methoxy]benzoyl}phenoxy)ethyl acetate] yielded a melting point of 90 to 91 °C.

As to `COc1ccc(C(=O)c2cccc(OCc3nc(-c4ccccc4)oc3C)c2)c(OCC(=O)O)c1` [Example 4, (5-methoxy-2-{3-[(5-methyl-2-phenyl-1,3-oxazol-4-yl)methoxy]benzoyl}phenoxy)acetic acid], the melting point fell in the range of 198 to 199 °C.

`COc1ccc(C(C)(O)c2cccc(OCc3nc(-c4ccccc4)oc3C)c2)c(OCCOC(C)=O)c1` (stereo not shown) [Example 5, [2-(1-hydroxy-1-{3-[(5-methyl-2-phenyl-1,3-oxazol-4-yl)methoxy]phenyl}ethyl)-5-methoxyphenoxy]ethyl acetate]: the melting point was in the range of 144 to 145 °C.

`COc1ccc(C(C)(O)c2cccc(OCc3nc(-c4ccccc4)oc3C)c2)c(OCC(=O)O)c1` (stereo not shown) [Example 6, [2-(1-hydroxy-1-{3-[(5-methyl-2-phenyl-1,3-oxazol-4-yl)methoxy]phenyl}ethyl)-5-methoxyphenoxy]acetic acid] came in with a melting point of 148 to 149 °C.

Molecule `CCOC(c1cccc(OCc2nc(-c3ccccc3)oc2C)c1)c1ccc(OC)cc1OCC(=O)O` (stereo not shown) [Example 7, [2-(ethoxy{3-[(5-methyl-2-phenyl-1,3-oxazol-4-yl)methoxy]phenyl}methyl)-5-methoxyphenoxy]acetic acid] returned a melting point of 129 to 130 °C.

For the molecule `Cc1oc(-c2ccccc2)nc1COc1ccc(C(=O)c2ccccc2OCC(=O)O)cc1` [Example 8, (2-{4-[(5-methyl-2-phenyl-1,3-oxazol-4-yl)methoxy]benzoyl}phenoxy)acetic acid], the melting point lay in the range of 174 to 175 °C.

In the case of `Cc1oc(-c2ccccc2)nc1COc1ccc(C(=O)c2ccc(O)cc2OCC(=O)O)cc1` [Example 11, (5-hydroxy-2-{4-[(5-methyl-2-phenyl-1,3-oxazol-4-yl)methoxy]benzoyl}phenoxy)acetic acid], the melting point was 229 to 230 °C.

Turning to `CCOC(=O)COc1cc(O)ccc1C(=O)c1ccc(OCc2nc(-c3ccccc3)oc2C)cc1` [Example 12, ethyl (5-hydroxy-2-{4-[(5-methyl-2-phenyl-1,3-oxazol-4-yl)methoxy]benzoyl}phenoxy)acetate], the melting point was 184 to 186 °C.

In turn, `COc1ccc(C(=O)c2ccc(OCc3nc(-c4ccccc4)oc3C)cc2)c(OC(C)C(=O)O)c1` (stereo not shown) [Example 13, 2-(5-methoxy-2-{4-[(5-methyl-2-phenyl-1,3-oxazol-4-yl)methoxy]benzoyl}phenoxy)propanoic acid] gave a melting point of 100 to 102 °C.

`COc1ccc(C(=O)c2ccc(OCc3nc(-c4ccccc4)oc3C)cc2)c(OCCC(=O)O)c1` [Example 15, 3-(5-methoxy-2-{4-[(5-methyl-2-phenyl-1,3-oxazol-4-yl)methoxy]benzoyl}phenoxy)propanoic acid] gave a melting point of 142 to 143 °C.

In turn, `CCC(Oc1cc(OC)ccc1C(=O)c1ccc(OCc2nc(-c3ccccc3)oc2C)cc1)C(=O)O` (stereo not shown) [Example 17, 2-(5-methoxy-2-{4-[(5-methyl-2-phenyl-1,3-oxazol-4-yl)methoxy]benzoyl}phenoxy)butanoic acid] had a melting point of 161 to 162 °C.

The molecule `COc1ccc(C(=O)c2ccc(OCc3nc(-c4ccccc4)oc3C)cc2)c(OC(C(=O)O)C(C)C)c1` (stereo not shown) [Example 18, 2-(5-methoxy-2-{4-[(5-methyl-2-phenyl-1,3-oxazol-4-yl)methoxy]benzoyl}phenoxy)-3-methylbutanoic acid] registered a melting point of 87 to 88 °C.

The molecule `COc1ccc(C(=O)c2ccc(OCc3nc(-c4ccccc4)oc3C)cc2)c(OC(F)(F)C(=O)O)c1` [Example 19, difluoro (5-methoxy-2-{4-[(5-methyl-2-phenyl-1,3-oxazol-4-yl)methoxy]benzoyl}phenoxy)acetic acid] had a melting point of 166 to 167 °C.
